4 compounds from patent US12043602B2, “Fendiline derivatives” (The Board of Regents of the University of Texas System, priority 2019, dated 2024) can be followed below.

“And” between values parts separate entries of the source, which are not always exact repeats. Equal values may be shown once. Read-outs that look alike come from different tables or passages of the source.

Common to all, as to format: cell-based
Test [1] concerns BxPC-3 (WT) pancreatic tumor cells. Kind of test: CyQUANT proliferation assay. To be noted: Homo sapiens. The method, then: (§1) Madine Darby Canine Kidney epithelial cells (MDCK) stably co-expressing mGFP-tagged full length oncogenic mutant K-Ras (GFP—K-RASG12V) or mGFP-LactC2 (peptide probe for phosphatidylserine) and mCherry-tagged to the amino acids 179-189 of H-RasC181S, C184S (mCherry-CAAX, localizes primarily to endomembranes) were grown in DMEM-high glucose/sodium pyruvate/10% FBS. The medium was supplemented with 1× Penicillin/Streptomycin for fluorescence microscopy assays, to avoid any microbial contamination from the test compounds added. KLE and Hec50 cells were maintained in DMEM-F-12 medium supplemented with 10% FBS. Hec-1A and Hec-1B cells were grown in McCoy's 5a medium supplemented with 10% FBS. ESS-1 cells were grown in RPMI 1640 medium supplemented with 20% FBS. MPanc96 cells were grown in DMEM supplemented with 10% FBS, MiaPaCa-2 cells in DMEM supplemented with 10% FBS and 2.5% horse serum and all other cell lines were grown in RPMI 1640 supplemented with 10% FBS. All cancer cell media were supplemented with ×Penicillin/Streptomycin. All cell lines were grown at 37° C. with 5% CO2.
(§2) Cells were seeded in 96-well plates. After 24 h, fresh growth medium supplemented with 0.1% vehicle (DMSO), or various concentrations of drugs was added and cells were grown for 72 h. Cell numbers were quantified using the CyQUANT® Cell Proliferation Assay Kit (Molecular Probes, Life Technologies), according to the manufacturer's protocol. Fluorescence measurement was used as a measure of live cell number.

The test system of test [2] is MPanc96 (Mut) pancreatic tumor cells. As to the kind of experiment: CyQUANT proliferation assay. The method, then:
as §1, §2

Test [3] deals with NCI-H23 (Mut) lung tumor cells. Kind of test: CyQUANT proliferation assay. Particulars: Homo sapiens. The method, then:
as §1, §2

For test [4], the system named is Ishikawa (WT) endometrial tumor cells. As to the kind of experiment: CyQUANT proliferation assay. Details: key to IC50 proliferation Ishikawa (WT): NE—Not efficacious. Particulars: for IC50: Homo sapiens, Ishikawa. The method, then: as §1, §2
Test [5] has as its target mGFP-K-RASG12V (Homo sapiens (Human), UniProt P01116, G12V). As to the kind of experiment: K-Ras mislocalization assay (confocal microscopy, Manders coefficient). Details: key to Emax: Manders coefficient: fraction of mCherry-CAAX co-localizing with GFP-K-Ras. Particulars: for IC50 / Emax: MDCK cells; for Emax: maximal effect, Manders coefficient. In outline: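 MDCK cells stably co-expressing mGFP-K-RASG12V and mCherry-CAAX (endomembrane marker) treated with compound or 0.1% DMSO for 48 h, fixed in 4% paraformaldehyde, imaged by confocal microscopy. Mislocalization quantified as the fraction of mCherry-CAAX co-localizing with mGFP-K-RASG12V (Manders coefficient) after 8-bit thresholding.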

Test [6] concerns the target SMPD1-GFP (ASM) (Homo sapiens (Human), UniProt P17405). As to the kind of experiment: Western blot of SMPD1-GFP levels. To be noted: 5 μM compounds for 48 h. The method, then: FIG. 6A-C. (A) Dose response curves quantifying the extent of KRASG12V and LactC2 mislocalization after 48 h treatment with compounds. Mislocalization was quantified using Manders coefficients as the fraction of mCherry-CAAX co-localizing with mGFP-KRASG12V or GFP-LactC2. (B) ASM activity in cell stably expressing GFP-tagged SMPD1 treated with DMSO or 5 μM compound for 48 h. (C) Representative western blots and quantitation of SMPD1-GFP levels in cells treated with 5 μM compounds for 48 h. (D) Representative confocal images of MDCK cells stably co-expressing mGFP-KRASG12V and mCherry-CAAX treated with 10 μM compound 6 or 1 μM of compounds 12f (NY0244), 12h (NY0331) or 22 (NY0335) for 48 h (-ASM), then incubated with recombinant ASM in the continued presence of drugs for a further 60 min (+ASM). Mislocalization was quantified using Manders coefficients as the fraction of mCherry-CAAX co-localizing with mGFP-KRASG12V.
Western Blotting. […] Signals were detected by enhanced chemiluminescence (Thermo Fisher Scientific) and imaged using a FluorChemQ imager (Alpha Inotech). Quantification of intensities was performed using FluorChemQ software.
In general terms: Immunoblotting shows a protein as a band on a membrane.

Setting [7] is: BXPC-3, 72 h, read-out: IC50 proliferation BxPC-3 (WT).
[8] abbreviates: BXPC-3, Table 11, pancreatic, read-out: IC50 (μM) BxPC-3 (WT).
Setting [9] is: MPANC96, 72 h, read-out: IC50 proliferation MPanc96 (Mut).
The mark [10] stands for this setting: MPANC96, Table 11, pancreatic, read-out: IC50 (μM) MPanc96 (Mut).
[11] abbreviates: NCI-H23, 72 h, read-out: IC50 proliferation NCI-H23 (Mut).
Where [12] appears, read: NCI-H23, Table 11, lung, read-out: IC50 (μM) NCI H23 (Mut).
Setting [13] is: Table 11, endometrial, read-out: IC50 (μM) Ishikawa (WT).
Where [14] appears, read: 48 h treatment, read-out: IC50 (μM), KRASG12V mislocalization.

In the case of `CC(NCCC(c1ccccc1)c1ccccc1)c1ccccc1` (stereo not drawn) [Fendiline], the IC50 was 28.6 µM in test [1] (setting [7]); 28.6 ± 5.9 µM in test [1] (setting [8]); 10.8 µM in test [2] (setting [9]); 10.8 µM in test [2] (setting [10]); 11.4 µM in test [3] (setting [11]); 11.4 ± 1 µM in test [3] (setting [12]). For the same compound, the IC50 in test [4] (setting [13]) was over 30 µM. Moreover, in test [4] (72 h), the “IC50 proliferation Ishikawa (WT)” value is “NE”.

`COc1ccc([C@@H](C)N(CC=C(c2ccccc2)c2ccccc2)CCN2CCN(C)CC2)cc1` [NY0244, (R)-N-(1-(4-methoxyphenyl)ethyl)-N-(2-(4-methylpiperazin-1-yl)ethyl)-3,3-diphenylprop-2-en-1-amine]: the IC50 in test [5] (setting [14]) is 0.1 µM; in test [1] (setting [7]) it was 5.73 µM; in test [1] (setting [8]), 5.7 µM; in test [2] (setting [9]), 4.22 µM; in test [2] (setting [10]), 4.2 µM; in test [3] (setting [11]), 3.81 µM. Besides, the figures for the IC50 in test [3] (setting [12]) and in test [4] (setting [13]) were 3.8 µM and over 30 µM, respectively. Further, the Emax is 0.75 ± 0.01 in test [5] (48 h); 0.75 and 0.75 ± 0.01 in test [5] (48 h, listed as 12f). Also, in test [5] (versus hit 7), the “fold increase in KRAS mislocalization potency” value turned out to be 5 fold. In addition, the “IC50 proliferation Ishikawa (WT)” value in test [4] (72 h) was “NE”. Moreover, the “cellular levels of ASM (SMPD1-GFP)” value in test [6] is on record as “reduced the levels of ASM”.

With `COc1ccc([C@@H](C)N(CC=C(c2ccccc2)c2ccccc2)CCN2CCCC2)cc1` [NY0331, (R)-N-(1-(4-methoxyphenyl)ethyl)-3,3-diphenyl-N-(2-(pyrrolidin-1-yl)ethyl)prop-2-en-1-amine], the IC50 in test [5] (setting [14]) amounted to 0.3 µM; in test [2] (setting [9]) it was 3.81 µM; in test [2] (setting [10]), 3.8 µM. In addition, the Emax in test [5] (48 h) amounted to 0.85 ± 0.04. Besides, the “fold potency loss / decreased potency” value in test [5] (versus 12f (NY0244)) amounted to 3 fold. The “cellular levels of ASM (SMPD1-GFP)” value in test [6] is recorded as “reduced the levels of ASM”.

As to `COc1ccc([C@@H](C)N(CC=C(c2ccccc2)c2ccccc2)CCCN2CCN(C)CC2)cc1` [NY0335, (R)-N-(1-(4-methoxyphenyl)ethyl)-N-(3-(4-methylpiperazin-1-yl)propyl)-3,3-diphenylprop-2-en-1-amine], the IC50 in test [5] (48 h, read-out: KRAS mislocalization potency) was determined as 0.02 µM; in test [5] (setting [14]), 0.02 µM; in test [1] (setting [7]) it was 5.34 µM; in test [1] (setting [8]) it was 5.3 µM; in test [2] (setting [9]) it was 4.18 µM; in test [2] (setting [10]) it was 4.2 µM. The IC50 worked out at 4.14 µM in test [3] (setting [11]); 4.1 µM in test [3] (setting [12]); 11 µM in test [4] (72 h, read-out: IC50 proliferation Ishikawa (WT)); 11 µM in test [4] (setting [13]). Further, the Emax in test [5] (48 h, listed as 22) came to 0.81; in test [5] (48 h, listed as NY335), 0.81 ± 0.01.
